Test [1] has as its system muscle atrophy model mice (immobilized mice). The test can be described thus: Effects of hydroxylated fatty acid on muscle atrophy model mice (hind limbs immobilized with plastic casts). The format is in vivo, C57BL/6J mice. The following applies: 1% in diet for 20 days (immobilization for the latter 10 days); for loss of soleus muscle (muscle weight per body weight): Fig. 2, n = 6; for loss of gastrocnemius muscle (gastrocnemius muscle weight per body weight): Fig. 3, n = 6; for loss of soleus muscle cross-sectional area: HE staining, 400 fibers pooled from 2 mice, Fig. 4. From the text:
C57BL/6J mice (male, 10 weeks old) were fed a normal diet (CE-2, CLEA Japan, Inc.), a 1% linoleic acid-containing diet (LA), or a 1% 10-hydroxy-cis-12-octadecenoic acid-containing diet (HYA) (LA manufactured by Sigma-Aldrich and HYA manufactured by Noster Inc. were used) each for 10 days. Then, under general anesthesia, both hind limbs of the mice were immobilized with plastic casts to create immobilized mice. After 10 days of immobilization (still receiving the normal diet or each mixed diet), the mice were sacrificed and weighed. Both soleus muscles were then collected and weighed. The comparison results of muscle weight per body weight are shown in Fig. 2 (n = 6, *P < 0.05, **P < 0.01, 2-way ANOVA with Bonferroni's post hoc test). Furthermore, under the same conditions, both gastrocnemius muscles were collected and weighed. The comparison results of gastrocnemius muscle weight per body weight are shown in Fig. 3 (n = 6, *P < 0.05, **P < 0.01, 2-way ANOVA with Bonferroni's post hoc test).
In addition, the formalin-soaked soleus muscles were cut in the cross section at its largest diameter, and sections were prepared. After HE staining, the cross-sectional area of the muscle fibers was measured. The comparison results of soleus muscle cross-sectional area are shown in Fig. 4 (the area of 400 fibers pooled from 2 mice was measured and averaged for each condition, **P < 0.01, 2-way ANOVA with Bonferroni's post hoc test).

Test [2] deals with muscle atrophy model mice (high-fat diet administered mice). The test is described as follows: Effects of hydroxylated fatty acid on muscle atrophy model mice (high-fat diet administration). The format is in vivo, C57BL/6J mice. Conditions: 1% added to high-fat diet for 14 days, compared to administration of a high-fat diet alone; for soleus muscle weight (per body weight): Fig. 7, n = 12; for gastrocnemius muscle weight (per body weight): Fig. 8, n = 12; for tibialis anterior muscle cross-sectional area: HE staining, 400 fibers pooled from 2 mice, Fig. 9(B). How it is done: C57BL/6J mice (male, 10 weeks old) were fed a normal diet (CE-2, CLEA Japan, Inc.), a high-fat diet (HFD32, CLEA Japan, Inc.), a 1% HYA-added high-fat diet, or a 1% LA (linoleic acid)-added high-fat diet (HYA manufactured by Noster Inc., LA manufactured by Sigma-Aldrich were used) each for 14 days to create a muscle atrophy model mouse by high-fat diet administration, and the effects by the administration of hydroxylated fatty acid were evaluated.
C57BL/6J mice (male, 10 weeks old) were fed a normal diet (CE-2, CLEA Japan, Inc.), a high-fat diet (HFD32, CLEA Japan, Inc.), a 1% HYA-added high-fat diet, or a 1% LA (linoleic acid)-added high-fat diet each for 14 days. After feeding, the mice were sacrificed and weighed. Both soleus muscles were collected and weighed. The comparison results of soleus muscle weight per body weight are shown in Fig. 7 (n = 12, **P < 0.01, 2-way ANOVA with Bonferroni's post hoc test). Furthermore, under the same conditions, both gastrocnemius muscles were collected and weighed. The comparison results of gastrocnemius muscle weight per body weight are shown in Fig. 8 (n = 12, **P < 0.01, 2-way ANOVA with Bonferroni's post hoc test).
In addition, the formalin-soaked tibialis anterior muscle was cut in the cross section at its largest diameter, and sections were prepared. After HE staining (Fig. 9(A)), the cross-sectional area of the muscle fibers was measured. The comparison results of tibialis anterior muscle cross-sectional area are shown in Fig. 9(B) (the area of 400 fibers pooled from 2 mice was measured and averaged for each condition, **P < 0.01, 2-way ANOVA with Bonferroni's post hoc test).

Where [3] appears, read: compared to administration of a normal diet.
Where [4] appears, read: compared to administration of linoleic acid.

Turning to `CCCCC/C=C\CC(O)CCCCCCCCC(=O)O` (stereo not drawn) [HYA, 10-hydroxy-cis-12-octadecenoic acid], in test [1] (setting [3]), the “loss of soleus muscle (muscle weight per body weight)” value was “significantly inhibited”, the “loss of gastrocnemius muscle (gastrocnemius muscle weight per body weight)” value is reported as “significantly inhibited” and the “loss of soleus muscle cross-sectional area” value is reported as “significantly inhibited”. Also, in test [1] (setting [4]), the “loss of gastrocnemius muscle (gastrocnemius muscle weight per body weight)” value is “significantly inhibited” and the “loss of soleus muscle cross-sectional area” value was “significantly inhibited”. Also, in test [2], the “soleus muscle weight (per body weight)” value is given as “significantly increased”, the “gastrocnemius muscle weight (per body weight)” value was “significantly increased” and the “tibialis anterior muscle cross-sectional area” value is given as “significantly increased”.

Regarding `CCCCC/C=C\C/C=C\CCCCCCCC(=O)O` [linoleic acid, reference compound], in test [1] (setting [3]), the “loss of soleus muscle (muscle weight per body weight)” value is recorded as “did not significantly inhibit”, the “loss of gastrocnemius muscle (gastrocnemius muscle weight per body weight)” value was “did not significantly inhibit” and the “loss of soleus muscle cross-sectional area” value is reported as “did not significantly inhibit”. In test [2], the “soleus muscle weight (per body weight)” value is given as “a tendency toward an increase”, the “gastrocnemius muscle weight (per body weight)” value is “a tendency toward an increase” and the “tibialis anterior muscle cross-sectional area” value is reported as “a tendency toward an increase”.
